For this assay, the target named is mushroom tyrosinase (Agaricus bisporus, UniProt C7FF04). It counts as biochemical. The method, then:
Tyrosinase inhibitory potential of alk(en)ylhydroxycyclohexanes has not been previously reported.
Tyrosinase inhibitory activity was determined spectrophotometrically with slight modifications. Briefly, tested samples were dissolved in DMSO to a final concentration of 20 mg/mL. In a 24-well plate, 30 μL of the samples was added to 970 μL of potassium phosphate buffer (0.1 M, pH 6.5) and serially diluted two-fold. The mixture (70 μL) was transferred to a 96-well plate containing 30 μL of potassium phosphate buffer (0.1 M, pH 6.5) to obtain increasing concentration range of (1.56–200 μg/mL). Then, 30 μL of mushroom tyrosinase solution (333 Units/mL in phosphate buffer, pH 6.5) was added to each mixture, which was then incubated at 25 °C for 5 min. Thereafter, 110 µL of 2 mM L-tyrosine was added in all wells of a 96-well microtiter plate and further incubated for 30 min at 25 °C. […] The absorbance of the mixture was read at 492 nm using an ELISA microplate reader (VarioSkan Flash, Thermo Fisher Scientific, Vantaa, Finland). All experiments were performed in triplicates. The percent inhibition of tyrosinase was calculated as follows: Tyrosinase inhibitory (%)=(Ao−A1/Ao) × 100 where A0 is the absorbance of the negative control with the enzyme without test samples, A1 is the absorbance of the test samples and enzyme.
Data were expressed as mean ± SD from three independent experiments. The IC50 values, corresponding to the concentration required to inhibit 50% of tyrosinase activity, were calculated from a sigmoidal dose–response of a non-linear regression and R-square values representing the best fit of the model were determined by Pearson nonlinear regression using the GraphPad Prism 5 software (GraphPad Software, San Diego, CA, USA). A one-way ANOVA was performed and differences between means were separated using the Tukey multiple comparison test at p < 0.05. Experiments were performed in triplicate.
mushroom tyrosinase, sequence (C7FF04 1-392): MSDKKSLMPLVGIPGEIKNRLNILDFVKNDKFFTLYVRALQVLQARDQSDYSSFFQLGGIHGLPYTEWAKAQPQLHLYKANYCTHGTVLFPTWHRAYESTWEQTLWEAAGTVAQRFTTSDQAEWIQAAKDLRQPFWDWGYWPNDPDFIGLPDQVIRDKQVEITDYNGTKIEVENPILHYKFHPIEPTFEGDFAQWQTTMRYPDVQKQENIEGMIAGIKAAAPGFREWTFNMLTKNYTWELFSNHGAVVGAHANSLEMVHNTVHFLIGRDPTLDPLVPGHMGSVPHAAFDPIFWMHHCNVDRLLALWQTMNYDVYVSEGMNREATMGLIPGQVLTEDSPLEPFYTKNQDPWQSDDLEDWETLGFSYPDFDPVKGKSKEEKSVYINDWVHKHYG
Regarding `CCCC/C=C\CCCCCCCCCCCc1cccc(O)c1` [Compound 1, 3-heptadec-12′-Z-enyl phenol], the “tyrosinase inhibition, rating in words” value was “moderately active”.

`CCCC/C=C\CCCCCCCCCCC[C@@]1(O)CCC[C@@H](O)C1` [Compound 2, (1R,3R)-1,3-dihydroxy-3-[heptadec-12′(Z)-enyl]cyclohexane]: the “tyrosinase inhibition, rating in words” value is “good inhibition”.

Take `CCCC/C=C\CCCCCCCCCCCC[C@@]1(O)C[C@@H](O)[C@H](O)[C@@H](O)[C@H]1O` [Compound 3, (1S,2S,3S,4S,5R)-1,2,3,4,5-pentahydroxy-5-[octadec-13′(Z)-enyl]cyclohexane]: the “tyrosinase inhibition, rating in words” value is recorded as “good inhibition”.

Regarding `CCCC/C=C\CCCCCCCCCCC[C@]1(O)CC[C@@H](O)[C@H](O)C1` [Compound 4, (1R,2S,4R)-1,2,4-trihydroxy-4-[heptadec-12′(Z)-enyl]cyclohexane], the “tyrosinase inhibition, rating in words” value is given as “moderately active”.

(Values after publication PMC9229927, “New Alk(en)ylhydroxycyclohexanes with Tyrosinase Inhibition Potential from Harpephyllum caffrum Bernh. Gum Exudate” (Molecules, 2022).)
